Test [1] has as its target human TYK2 (JH2domain-pseudokinase) (Homo sapiens (Human), UniProt P29597). Description: TYK2 JH2 Domain Binding Assay (KINOMEscan). The method in brief: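 The construct was human TYK2 G556–D888 fused to the NFkB DNA-binding domain and expressed in HEK293 cells; unpurified extract was incubated with compound and liganded beads for 1 hour at room temperature.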
For test [2], the target named is Tyk2 kinase domain (DH1) (Homo sapiens (Human), UniProt P29597). Kind of test: Tyk2 Radioactive Kinase Assay. The format is biochemical. The note with it: for inhibition at 10 µM: read-out: Tyk2 JH1% Inhibition @ 10 μM. The essentials: (§1)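 Each kinase domain is incubated with test compound at 10 μM. Activity is then measured radiometrically and expressed as percent inhibition relative to uninhibited enzyme.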
Tyk2 kinase domain (DH1), sequence (P29597 897-1176): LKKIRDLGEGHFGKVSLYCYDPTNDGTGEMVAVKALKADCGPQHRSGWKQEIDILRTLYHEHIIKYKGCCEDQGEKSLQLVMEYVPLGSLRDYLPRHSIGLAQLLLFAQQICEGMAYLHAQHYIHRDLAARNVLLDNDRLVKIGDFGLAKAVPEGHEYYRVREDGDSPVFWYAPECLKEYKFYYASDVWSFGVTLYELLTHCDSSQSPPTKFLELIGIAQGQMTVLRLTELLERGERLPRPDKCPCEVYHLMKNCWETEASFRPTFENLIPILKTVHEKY

For test [3], the target named is JAK2 kinase domain (JH1) (Homo sapiens (Human), UniProt O60674). Description: JAK2 Radioactive Kinase Assay. It counts as biochemical. Conditions: for inhibition at 10 µM: read-out: JAK2 JH1% Inhibition @ 10 μM. The method in brief: as §1
JAK2 kinase domain (JH1), sequence (O60674 849-1124): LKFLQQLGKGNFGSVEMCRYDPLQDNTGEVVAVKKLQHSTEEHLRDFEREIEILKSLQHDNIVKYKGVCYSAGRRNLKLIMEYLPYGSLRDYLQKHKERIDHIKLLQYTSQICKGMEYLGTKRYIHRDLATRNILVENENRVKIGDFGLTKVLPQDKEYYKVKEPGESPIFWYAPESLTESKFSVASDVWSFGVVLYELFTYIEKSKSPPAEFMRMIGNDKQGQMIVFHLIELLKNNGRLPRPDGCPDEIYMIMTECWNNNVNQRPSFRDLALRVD
Test [4] has as its target Tyk2/JAK2 (heterodimeric complex) (Homo sapiens (Human), UniProt P29597). Kind of test: IL-12 Induced pSTAT4 in Human PBMC. It counts as cell-based. Conditions: 1.7 ng/mL IL-12. An excerpt:
The IL-12 Induced pSTAT4 assay evaluates the inhibition of IL-12 induced STAT4 phophorylation mediated by Tyk2/JAK2 (heterodimeric complex).

Test [5] has as its target JAK2/JAK2 homdimeric complex (Homo sapiens (Human), UniProt O60674). Kind of test: GM-CSF Induced pSTAT5 in Human PBMC. The format is cell-based. The note with it: GM-CSF 5 ng/mL for 20 minutes, pSTAT5 by MSD, read-out: PBMC_GMCSF_pSTAT5 IC50.

This note sets out measurements from patent US10508120B2, “TYK2 inhibitors and uses thereof” (Nimbus Lakshmi, Inc., priority 2017, dated 2019).

Where two headings read alike, the source gives them in different places.

human TYK2 (JH2domain-pseudokinase), sequence (P29597 556-888): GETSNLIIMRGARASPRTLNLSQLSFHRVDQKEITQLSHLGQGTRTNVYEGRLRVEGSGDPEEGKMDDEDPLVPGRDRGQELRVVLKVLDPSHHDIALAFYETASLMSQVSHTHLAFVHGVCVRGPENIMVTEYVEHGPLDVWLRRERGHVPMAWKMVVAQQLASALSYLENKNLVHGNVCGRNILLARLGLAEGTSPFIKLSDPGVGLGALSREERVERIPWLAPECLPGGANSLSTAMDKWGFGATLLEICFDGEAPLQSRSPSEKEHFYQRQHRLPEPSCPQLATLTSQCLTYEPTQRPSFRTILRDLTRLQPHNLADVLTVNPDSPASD
JAK2/JAK2 homdimeric complex, sequence (O60674 whole entry): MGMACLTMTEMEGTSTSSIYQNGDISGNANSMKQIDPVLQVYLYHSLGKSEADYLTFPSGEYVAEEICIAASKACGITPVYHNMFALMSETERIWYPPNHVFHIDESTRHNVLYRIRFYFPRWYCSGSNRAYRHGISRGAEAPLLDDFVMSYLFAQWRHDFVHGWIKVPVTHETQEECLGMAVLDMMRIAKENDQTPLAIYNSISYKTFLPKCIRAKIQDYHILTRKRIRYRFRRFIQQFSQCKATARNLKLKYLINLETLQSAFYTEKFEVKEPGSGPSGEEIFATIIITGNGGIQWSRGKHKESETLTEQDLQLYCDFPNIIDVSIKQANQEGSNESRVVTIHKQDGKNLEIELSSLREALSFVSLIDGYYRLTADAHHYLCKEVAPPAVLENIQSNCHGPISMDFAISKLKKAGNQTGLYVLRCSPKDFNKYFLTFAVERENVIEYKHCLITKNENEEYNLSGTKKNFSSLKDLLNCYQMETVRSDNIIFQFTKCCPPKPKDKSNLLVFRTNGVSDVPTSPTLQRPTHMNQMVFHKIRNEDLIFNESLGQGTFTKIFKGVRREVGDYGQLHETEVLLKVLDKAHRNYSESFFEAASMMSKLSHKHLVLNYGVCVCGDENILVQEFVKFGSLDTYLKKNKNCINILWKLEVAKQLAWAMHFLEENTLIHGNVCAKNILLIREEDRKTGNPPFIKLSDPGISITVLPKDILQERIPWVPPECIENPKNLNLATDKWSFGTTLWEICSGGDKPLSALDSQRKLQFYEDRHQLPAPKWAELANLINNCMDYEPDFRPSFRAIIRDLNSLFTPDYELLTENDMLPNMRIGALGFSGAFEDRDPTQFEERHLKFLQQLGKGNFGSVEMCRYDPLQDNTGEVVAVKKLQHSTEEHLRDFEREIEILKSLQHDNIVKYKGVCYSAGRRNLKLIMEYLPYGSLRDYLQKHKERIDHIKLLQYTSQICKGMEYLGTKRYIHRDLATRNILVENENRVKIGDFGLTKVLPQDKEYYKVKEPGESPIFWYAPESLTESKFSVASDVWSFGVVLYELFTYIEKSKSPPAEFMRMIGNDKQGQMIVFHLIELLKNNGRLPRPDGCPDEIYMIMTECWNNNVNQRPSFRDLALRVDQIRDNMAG
JAK2/JAK2 homdimeric complex, sequence (P32927 17-897 partner): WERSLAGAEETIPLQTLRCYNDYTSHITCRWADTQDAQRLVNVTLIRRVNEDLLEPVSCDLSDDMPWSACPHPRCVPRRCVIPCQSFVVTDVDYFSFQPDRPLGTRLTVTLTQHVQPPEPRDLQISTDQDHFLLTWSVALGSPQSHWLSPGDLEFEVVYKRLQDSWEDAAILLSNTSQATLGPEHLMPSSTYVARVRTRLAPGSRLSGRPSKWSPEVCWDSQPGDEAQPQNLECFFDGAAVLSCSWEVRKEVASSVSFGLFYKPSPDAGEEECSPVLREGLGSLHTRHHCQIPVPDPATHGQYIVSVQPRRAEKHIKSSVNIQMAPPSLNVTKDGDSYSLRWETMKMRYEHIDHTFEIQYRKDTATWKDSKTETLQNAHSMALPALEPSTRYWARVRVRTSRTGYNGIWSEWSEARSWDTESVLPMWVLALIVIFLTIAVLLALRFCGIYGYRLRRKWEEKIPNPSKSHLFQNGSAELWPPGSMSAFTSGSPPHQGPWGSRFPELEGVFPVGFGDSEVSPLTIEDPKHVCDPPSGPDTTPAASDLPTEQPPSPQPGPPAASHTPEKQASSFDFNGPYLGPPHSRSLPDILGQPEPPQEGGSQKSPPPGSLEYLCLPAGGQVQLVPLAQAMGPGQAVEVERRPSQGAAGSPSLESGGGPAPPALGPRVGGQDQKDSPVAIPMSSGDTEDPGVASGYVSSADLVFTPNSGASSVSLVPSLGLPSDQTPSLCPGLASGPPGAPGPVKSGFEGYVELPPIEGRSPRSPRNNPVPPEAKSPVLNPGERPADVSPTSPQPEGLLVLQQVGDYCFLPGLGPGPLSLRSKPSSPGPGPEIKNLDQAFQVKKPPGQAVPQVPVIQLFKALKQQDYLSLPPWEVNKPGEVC
Tyk2/JAK2 (heterodimeric complex), sequence (P29597 whole entry, other chains not shown): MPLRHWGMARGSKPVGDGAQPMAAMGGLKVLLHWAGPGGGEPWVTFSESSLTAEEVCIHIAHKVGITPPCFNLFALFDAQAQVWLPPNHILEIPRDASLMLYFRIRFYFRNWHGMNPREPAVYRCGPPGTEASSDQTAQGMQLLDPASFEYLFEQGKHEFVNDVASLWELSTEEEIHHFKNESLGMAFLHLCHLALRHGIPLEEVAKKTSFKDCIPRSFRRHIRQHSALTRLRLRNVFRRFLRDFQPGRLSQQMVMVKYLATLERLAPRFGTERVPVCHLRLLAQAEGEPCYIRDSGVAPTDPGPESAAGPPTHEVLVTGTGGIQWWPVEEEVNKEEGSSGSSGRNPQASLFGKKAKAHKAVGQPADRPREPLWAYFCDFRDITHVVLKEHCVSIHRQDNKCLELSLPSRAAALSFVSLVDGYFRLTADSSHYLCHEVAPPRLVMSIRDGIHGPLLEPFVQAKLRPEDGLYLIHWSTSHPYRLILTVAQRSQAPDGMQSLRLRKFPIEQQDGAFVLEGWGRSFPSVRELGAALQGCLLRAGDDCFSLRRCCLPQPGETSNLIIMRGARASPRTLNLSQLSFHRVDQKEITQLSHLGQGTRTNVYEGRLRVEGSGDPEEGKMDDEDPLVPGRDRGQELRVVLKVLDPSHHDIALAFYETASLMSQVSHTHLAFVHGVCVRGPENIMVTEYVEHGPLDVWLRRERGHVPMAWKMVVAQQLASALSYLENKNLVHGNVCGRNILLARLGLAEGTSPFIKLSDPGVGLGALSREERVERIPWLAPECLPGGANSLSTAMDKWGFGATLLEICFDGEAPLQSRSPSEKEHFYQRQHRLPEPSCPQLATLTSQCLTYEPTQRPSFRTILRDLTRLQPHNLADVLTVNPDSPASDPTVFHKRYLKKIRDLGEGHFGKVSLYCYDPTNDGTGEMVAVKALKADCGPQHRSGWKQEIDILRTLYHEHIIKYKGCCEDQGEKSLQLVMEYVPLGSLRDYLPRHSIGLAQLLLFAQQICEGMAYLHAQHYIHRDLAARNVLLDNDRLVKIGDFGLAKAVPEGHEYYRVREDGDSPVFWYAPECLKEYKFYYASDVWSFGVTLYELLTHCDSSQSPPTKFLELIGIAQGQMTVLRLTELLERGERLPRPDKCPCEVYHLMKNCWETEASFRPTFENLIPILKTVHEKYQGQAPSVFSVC

`CNc1cc(Nc2cccc(N3CCCC3=O)n2)nc2c(C(=O)N[C@H]3C[C@H]3F)cnn12` [I-244] registered a Kd in test [1] below 0.2 nM. Also, the inhibition at 10 µM in test [2] (compound at 10 μM, ATP 10 μM) was below 50%; in test [3] (compound at 10 μM, ATP 10 μM) it was below 50%. Moreover, the IC50 in test [4] was below 100 nM; in test [5] it was above 12500 nM.

With `CNc1cc(Nc2cccn(-c3cnn(C)c3)c2=O)nc2c(C(=O)N[C@H]3C[C@H]3F)cnn12` [I-296], the dissociation constant Kd in test [1] was below 0.2 nM. Besides, the inhibition at 10 µM in test [2] (compound at 10 μM, ATP 10 μM) is below 50%; in test [3] (compound at 10 μM, ATP 10 μM), below 50%. Further, the IC50 in test [4] is below 100 nM; in test [5], above 50000 nM.

In test [1], `CNc1cc(Nc2cccn(-c3cc(C)n(C)n3)c2=O)nc2c(C(=O)NC3CCC3)cnn12` [I-136] yielded a dissociation constant Kd below 0.2 nM. For the same compound, the inhibition at 10 µM was below 50% in test [2] (compound at 10 μM, ATP 10 μM) and below 50% in test [3] (compound at 10 μM, ATP 10 μM). Further, the values for the concentration for half-maximal inhibition (IC50) in test [4] and in test [5] were below 100 nM and above 2500 nM, respectively.

`CNc1cc(Nc2cc(Cl)cn(-c3ccnc(C)n3)c2=O)nc2c(C(=O)N[C@H]3C[C@H]3F)cnn12` [I-317] had an equilibrium dissociation constant (Kd) in test [1] below 0.2 nM. Also, the inhibition at 10 µM in test [2] (compound at 10 μM, ATP 10 μM) is below 50%; in test [3] (compound at 10 μM, ATP 10 μM), below 50%. For the same compound, the IC50 in test [4] is below 100 nM; in test [5], above 2500 nM.

As to `CNc1cc(Nc2cc(Cl)cn(C3CCOCC3)c2=O)nc2c(C(=O)N[C@@H]3CC[C@H]3O)cnn12` [I-825], the dissociation constant (Kd) in test [1] is below 0.2 nM. For the same compound, the inhibition at 10 µM in test [2] (10 μM compound, 10 μM ATP) is below 50%; in test [3] (10 μM compound, 10 μM ATP) it was below 50%. The IC50 is below 100 nM in test [4] and above 50000 nM in test [5].

In test [1], `CNc1cc(Nc2cccn(-c3ncc(C)s3)c2=O)nc2c(C(=O)N[C@H]3C[C@H]3F)cnn12` [I-262] registered a dissociation constant (Kd) below 0.2 nM. In addition, the inhibition at 10 µM in test [2] (compound at 10 μM, ATP 10 μM) was below 50%; in test [3] (compound at 10 μM, ATP 10 μM), below 50%. For the same compound, the values for the concentration for half-maximal inhibition (IC50) in test [4] and in test [5] were below 100 nM and above 2500 nM, respectively.

For `CNc1cc(Nc2cccn(-c3ccc(C)nn3)c2=O)nc2c(C(=O)NC3CCC3)cnn12` [I-141], in test [1], the dissociation constant (Kd) was below 0.2 nM. Moreover, the inhibition at 10 µM in test [2] (compound at 10 μM, ATP 10 μM) was below 50%; in test [3] (compound at 10 μM, ATP 10 μM) it was below 50%. Moreover, the results for the IC50 in test [4] and in test [5] were below 100 nM and above 50000 nM, respectively.

As for `CNc1cc(Nc2cccnc2OC)nc2c(C(=O)N[C@H]3CC[C@@H]3O)cnn12` [I-395], the dissociation constant (Kd) in test [1] is below 0.2 nM. Moreover, in test [2] (compound at 10 μM, ATP 10 μM), the “Tyk2 JH1% Inhibition @ 10 μM” value is “A (percent inhibition at 10 μM lower than 50)”. For the same compound, in test [3] (compound at 10 μM, ATP 10 μM), the “JAK2 JH1% Inhibition @ 10 μM” value is listed as “A (percent inhibition at 10 μM lower than 50)”. In addition, the IC50 was below 100 nM in test [4] and above 12500 nM in test [5].

Compound `CNc1cc(Nc2cccn([C@H]3CC[C@H](OC)CC3)c2=O)nc2c(C(=O)N[C@H]3CC[C@H]3O)cnn12` [I-539] came in with a Kd in test [1] below 0.2 nM. Also, the inhibition at 10 µM was below 50% in test [2] (compound at 10 μM, ATP 10 μM) and below 50% in test [3] (compound at 10 μM, ATP 10 μM). The 50% inhibitory concentration (IC50) in test [4] was below 100 nM; in test [5], above 50000 nM.

Compound `CNc1cc(Nc2cccnc2OC2CC2)nc2c(C(=O)NC3CCC3O)cnn12` (stereo not drawn) [I-392, 5-((2-cyclopropoxypyridin-3-yl)amino)-N-(2-hydroxycyclobutyl)-7-(methylamino)pyrazolo[1,5-a]pyrimidine-3-carboxamide] displayed an equilibrium dissociation constant (Kd) in test [1] below 0.2 nM. For the same compound, the inhibition at 10 µM is below 50% in test [2] (compound at 10 μM, ATP 10 μM) and below 50% in test [3] (compound at 10 μM, ATP 10 μM). Also, the results for the IC50 in test [4] and in test [5] were below 100 nM and above 50000 nM, respectively.

As to `CNc1cc(Nc2cc(Cl)cn([C@H]3CCCOC3)c2=O)nc2c(C(=O)N[C@@H]3C[C@@H]3F)cnn12` [I-772], the Kd in test [1] is below 0.2 nM. In addition, the inhibition at 10 µM in test [2] (compound at 10 μM, ATP 10 μM) was below 50%; in test [3] (compound at 10 μM, ATP 10 μM) it was below 50%. The IC50 in test [4] is below 100 nM; in test [5] it was above 300 nM.

`CNc1cc(Nc2cccn([C@H]3[C@@H]4COC[C@@H]43)c2=O)nc2c(C(=O)N[C@@H]3C[C@@H]3F)cnn12` [I-811]: the Kd in test [1] was below 0.2 nM. The inhibition at 10 µM is below 50% in test [2] (10 μM compound, 10 μM ATP) and below 50% in test [3] (10 μM compound, 10 μM ATP). For the same compound, the IC50 is below 100 nM in test [4] and above 50000 nM in test [5].

The term Kd denotes a measure of binding affinity in units of concentration. A lower Kd goes with tighter binding. What is called inhibition is the relative decrease from the control value, in per cent. Broadly, the IC50 is the midpoint of a concentration-inhibition curve.
